{"source": "paper PMC12595484", "about": "“Optimizing multifunctional fluorescent ligands for intracellular labeling” (Proceedings of the National Academy of Sciences of the …, 2025)", "tested_on": "U2OS cells expressing HaloTag fusion proteins", "assay": "Live-cell labeling of HaloTag fusions at different subcellular locations, Airyscan microscopy", "type": "cell-based", "details": "100 nM, 1 h", "method": "Fig. 4. Evaluation of live-cell labeling of biotin–rhodamine–HaloTag ligands 13HTL–16HTL. Airyscan fluorescence microscopy images of U2OS cells expressing HaloTag fusion proteins at different subcellular locations, incubated with 100 nM 13HTL–16HTL for 1 h followed by fixation, counterstaining with Hoechst 33342 (gray) and imaging. Columns indicate different HaloTag fusion proteins: (A–D) Cell-surface-localized HaloTag–PDGFR; (E–H) Outer mitochondrial membrane-localized HaloTag–TOMM20; (I–L) Endoplasmic reticulum membrane-localized HaloTag–Sec61β; (M–P) Nucleus-localized HaloTag–histone H2B. Rows indicate different ligands: (A,E,I, and M) biotin–JF549–HaloTag ligand (13HTL; yellow); (B, F, J, and N) biotin–JF608–HaloTag ligand (14HTL; red); (C, G, K, and O) biotin–JF646–HaloTag ligand (15HTL; magenta); (D, H, L, and P) biotin–JF635–HaloTag ligand (16HTL; magenta). […]\nindicated in the product information12 and from a previous publication.13 For labeling with biotin-JF-HaloTag ligands 13HTL–16HTL, cells were incubated with 100 nM or 1 µM ligand for 0.5–2 h at 37 °C. […] For quantitation of labeling intensity, ROIs were drawn surrounding individual HEK cells, and the average fluorescence ratio (JF/msGFP) from multiple cells in each condition was measured; no background subtraction was necessary.\nU2OS cell culture, labeling, and fluorescence microscopy. […]", "data": [{"compound": "O=C(CCCCC1SCC2NC(=O)NC21)NCCOCCOCCNC(=O)C1C[N+](=c2ccc3c(-c4cc(C(=O)NCCOCCOCCCCCCCl)ccc4C(=O)[O-])c4ccc(N5CCC5)cc4oc-3c2)C1", "note": "(stereo not shown) [13HTL, biotin–JF549–HaloTag ligand]", "values": [{"measurement": "labeling of HaloTag fusions (PDGFR, TOMM20, Sec61β, histone H2B)", "value": "low intracellular signals, only labeling the cell-surface-localized PDGFR–HaloTag fusion"}]}]}
